The experiment relates to P388 leukemia ip, CD2F1 mice, survival T/C. Kind of experiment: NCI In Vivo Anticancer Drug Screen. Data for tumor model P388 Leukemia (intraperitoneal) in CD2F1 (CDF1) mice. The conditions noted are these: endpoint: median survival time, higher = longer survival. The method, boiled down: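 Mice carrying the transplanted tumor received test compound or vehicle. Survival was recorded in each group, and the value is the treated-group measurement divided by that of the vehicle-treated control group.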

[1] abbreviates: dose: 50.0 mg/kg/injection, schedule: Q01DX005 (ip), vehicle: Klucel (hydroxypropylcellulose) (HPC).
Setting [2] is: dose: 100.0 mg/kg/injection, schedule: Q01DX005 (ip), vehicle: Klucel (hydroxypropylcellulose) (HPC).
The mark [3] stands for this setting: dose: 200.0 mg/kg/injection, schedule: Q01DX005 (ip), vehicle: Klucel (hydroxypropylcellulose) (HPC).
Setting [4] is: dose: 50.0 mg/kg/injection, schedule: Q01DX005 (ip), vehicle: saline with Tween-80.
The mark [5] stands for this setting: dose: 100.0 mg/kg/injection, schedule: Q01DX005 (ip), vehicle: saline with Tween-80.
Setting [6] is: dose: 200.0 mg/kg/injection, schedule: Q01DX005 (ip), vehicle: saline with Tween-80.
[7] abbreviates: dose: 100.0 mg/kg/injection, schedule: Q01DX009 (ip), vehicle: saline with Tween-80.
The mark [8] stands for this setting: dose: 200.0 mg/kg/injection, schedule: Q01DX009 (ip), vehicle: saline with Tween-80.
Setting [9] is: dose: 60.0 mg/kg/injection, schedule: Q01DX005 (ip), vehicle: saline with Tween-80.
[10] abbreviates: dose: 120.0 mg/kg/injection, schedule: Q01DX005 (ip), vehicle: saline with Tween-80.
Setting [11] is: dose: 60.0 mg/kg/injection, schedule: Q01DX005 (ip), vehicle: saline.
Where [12] appears, read: dose: 120.0 mg/kg/injection, schedule: Q01DX005 (ip), vehicle: saline.
Setting [13] is: dose: 240.0 mg/kg/injection, schedule: Q01DX005 (ip), vehicle: saline.
[14] abbreviates: dose: 100.0 mg/kg/injection, schedule: Q04DX002 (ip), vehicle: Klucel (hydroxypropylcellulose) (HPC).
Setting [15] is: dose: 200.0 mg/kg/injection, schedule: Q04DX002 (ip), vehicle: Klucel (hydroxypropylcellulose) (HPC).
Setting [16] is: dose: 400.0 mg/kg/injection, schedule: Q04DX002 (ip), vehicle: Klucel (hydroxypropylcellulose) (HPC).
Where [17] appears, read: dose: 240.0 mg/kg/injection, schedule: Q01DX005 (ip), vehicle: saline with Tween-80.

The structures appear in SMILES notation. Values joined by “and” are separate entries in the source; they are usually repeats but may differ in a detail not shown here. Equal values may be shown once. Toxic doses and inconclusive results are not listed.

For the compound `NC(=O)c1ccc2c3c(ccc(C(N)=O)c13)CC2`, the T/C was 102 % of control (dose: 60.0 mg/kg/injection, schedule: Q01DX005 (ip), vehicle: Klucel (hydroxypropylcellulose) (HPC)); 109 % of control (dose: 120.0 mg/kg/injection, schedule: Q01DX005 (ip), vehicle: Klucel (hydroxypropylcellulose) (HPC)); 109 % of control (dose: 240.0 mg/kg/injection, schedule: Q01DX005 (ip), vehicle: Klucel (hydroxypropylcellulose) (HPC)).

For `CCc1nc2c(cnn2C)c(=O)n1-c1ccc(C)cc1`, the T/C under setting [1] was 97 % of control, the T/C under setting [2] is 101 % of control and the T/C under setting [3] is 98 % of control.

Consider `COC(=O)C1=C(C(=O)OC)P(I)(c2ccccc2)(c2ccccc2)N(C)C1(c1ccccc1)c1ccccc1`, for which the T/C under setting [1] is 100 % of control, the T/C under setting [2] is 100 % of control and the T/C under setting [3] is 90 % of control.

Consider `Nc1c(Br)cc(Br)c2c1C(=O)c1ccccc1-2`, for which the T/C runs as follows: under setting [4], 98 % of control; under setting [5], 91 % of control; under setting [6], 96 % of control.

Turning to `COC(C(=O)C(O)C(C)O)C1Cc2cc3cc(OC4CC(OC(C)=O)C(OC5CC(O)C(OC)C(C)O5)C(C)O4)cc(O)c3c(O)c2C(=O)C1OC1CC(OC2CC(OC3CC(C)(O)C(OC(=O)C(C)C)C(C)O3)C(O)C(C)O2)C(O)C(C)O1` (stereo unspecified), the T/C reads like this: (dose: 0.02 mg/kg/injection, schedule: Q01DX010 (ip), vehicle: saline) 100 % of control; (dose: 0.05 mg/kg/injection, schedule: Q01DX010 (ip), vehicle: saline) 100 % of control; (dose: 0.2 mg/kg/injection, schedule: Q01DX009 (ip), vehicle: saline) 183 % of control; (dose: 0.4 mg/kg/injection, schedule: Q01DX009 (ip), vehicle: saline) 122 % of control; (dose: 3.2 mg/kg/injection, schedule: Q01DX010 (ip), vehicle: saline) 90 % of control.

As to `CC(=O)OCC(OC(C)=O)C(OC(C)=O)C(OC(C)=O)C(C#N)OC(C)=O` (stereo unspecified), the T/C by setting is: under setting [7], 91 % of control; under setting [8], 87 % of control; (dose: 400.0 mg/kg/injection, schedule: Q01DX009 (ip), vehicle: saline with Tween-80) 91 % of control; (dose: 600.0 mg/kg/injection, schedule: Q01DX009 (ip), vehicle: saline with Tween-80) 87 % of control.

With `CCOC(=O)C(C(C)=O)C(c1cc(OC)c(OC)c(OC)c1)c1cc2c(cc1O)OCO2` (stereo unspecified), the T/C runs as follows: (dose: 15.0 mg/kg/injection, schedule: Q01DX005 (ip), vehicle: saline with Tween-80) 95 % of control; (dose: 30.0 mg/kg/injection, schedule: Q01DX005 (ip), vehicle: saline with Tween-80) 90 % of control; under setting [9], 89 % of control and 92 % of control; under setting [10], 100 % of control and 93 % of control.

As for `O=C(O)CNC(CO)(CO)CO`, the T/C under setting [11] is 102 % of control, the T/C under setting [12] is 100 % of control and the T/C under setting [13] was 97 % of control.

As to `COc1ccccc1Cc1c(OC)cc(OC)c(C(=O)CCc2ccccc2)c1O`, the T/C runs as follows: (dose: 3.2 mg/kg/injection, schedule: Q01DX009 (ip), vehicle: other) 100 % of control; (dose: 4.3 mg/kg/injection, schedule: Q01DX009 (ip), vehicle: other) 110 % of control; (dose: 6.4 mg/kg/injection, schedule: Q01DX009 (ip), vehicle: other) 100 % of control and 105 % of control; (dose: 9.6 mg/kg/injection, schedule: Q01DX009 (ip), vehicle: other) 114 % of control and 97 % of control; (dose: 14.0 mg/kg/injection, schedule: Q01DX009 (ip), vehicle: other) 89 % of control; (dose: 28.0 mg/kg/injection, schedule: Q01DX009 (ip), vehicle: other) 91 % of control.

Take `COC1=CC(=O)C(CO)=CC1=O`: the T/C was 104 % of control (dose: 3.12 mg/kg/injection, schedule: Q01DX009 (ip), vehicle: saline); 103 % of control and 104 % of control (dose: 6.25 mg/kg/injection, schedule: Q01DX009 (ip), vehicle: saline); 104 % of control and 91 % of control (dose: 12.5 mg/kg/injection, schedule: Q01DX009 (ip), vehicle: saline).

As to `FC(F)(F)c1ssc1C(F)(F)F`, the T/C runs as follows: (dose: 100.0 mg/kg/injection, schedule: Q01DX001 (ip), vehicle: other) 99 % of control; (dose: 200.0 mg/kg/injection, schedule: Q01DX001 (ip), vehicle: other) 104 % of control.

As to `CCOC(=O)NCNC(=O)OCC`, the T/C reads like this: (dose: 50.0 mg/kg/injection, schedule: Q01DX009 (ip), vehicle: Klucel (hydroxypropylcellulose) (HPC)) 100 % of control; (dose: 100.0 mg/kg/injection, schedule: Q01DX009 (ip), vehicle: Klucel (hydroxypropylcellulose) (HPC)) 102 % of control; under setting [14], 117 % of control; under setting [15], 107 % of control; under setting [16], 110 % of control.

Take `COCc1cn[nH]n1`: the T/C was 100 % of control under setting [11], 99 % of control under setting [12] and 104 % of control under setting [13].

For the compound `O=[N+]([O-])c1ccc(OCC#CCOc2ccc([N+](=O)[O-])c(C(F)(F)F)c2)cc1C(F)(F)F`, the T/C is 105 % of control (dose: 50.0 mg/kg/injection, schedule: Q01DX009 (ip), vehicle: other); 104 % of control (dose: 100.0 mg/kg/injection, schedule: Q01DX009 (ip), vehicle: other); 102 % of control (dose: 200.0 mg/kg/injection, schedule: Q01DX009 (ip), vehicle: other).

`O=C(O)C(c1ccccc1)c1cccc(C(C(=O)O)c2ccccc2)n1` (stereo unspecified): the T/C was 105 % of control under setting [9], 100 % of control under setting [10] and 102 % of control under setting [17].

Regarding `CN1CCC/C1=C/C(=O)c1ccccc1[N+](=O)[O-]`, the T/C under setting [14] was 102 % of control, the T/C under setting [15] is 99 % of control and the T/C under setting [16] is 100 % of control.

With `COC(=O)c1c2csc3ccccc3n-2c(=O)c1C`, the T/C is 102 % of control under setting [9], 101 % of control under setting [10] and 95 % of control under setting [17].

For the compound `O=C(Nc1ccccc1)OCC[N+](CCO)(CCO)CCO`, the T/C was 100 % of control (dose: 60.0 mg/kg/injection, schedule: Q01DX005 (ip), vehicle: water); 100 % of control (dose: 120.0 mg/kg/injection, schedule: Q01DX005 (ip), vehicle: water); 99 % of control (dose: 240.0 mg/kg/injection, schedule: Q01DX005 (ip), vehicle: water).

Consider `CC(=O)OC1CCCCC1C` (stereo unspecified), for which the T/C is, setting by setting: (dose: 50.0 mg/kg/injection, schedule: Q01DX009 (ip), vehicle: saline with Tween-80) 113 % of control; (dose: 50.0 mg/kg/injection, schedule: Q04DX003 (ip), vehicle: saline with Tween-80) 105 % of control; under setting [7], 118 % of control; (dose: 100.0 mg/kg/injection, schedule: Q04DX003 (ip), vehicle: saline with Tween-80) 110 % of control; under setting [8], 109 % of control; (dose: 200.0 mg/kg/injection, schedule: Q04DX003 (ip), vehicle: saline with Tween-80) 110 % of control.

On to `CS/N=C(\c1ccccc1)N(C)C`, for which the T/C runs as follows: (dose: 7.5 mg/kg/injection, schedule: Q01DX005 (ip), vehicle: Klucel (hydroxypropylcellulose) (HPC)) 97 % of control; (dose: 15.0 mg/kg/injection, schedule: Q01DX005 (ip), vehicle: Klucel (hydroxypropylcellulose) (HPC)) 100 % of control.

As to `CSC1=NNC(C)(C)C(N)=N1`, the T/C (dose: 100.0 mg/kg/injection, schedule: Q01DX001 (ip), vehicle: saline) is 98 % of control; the T/C (dose: 200.0 mg/kg/injection, schedule: Q01DX001 (ip), vehicle: saline) was 97 % of control; the T/C (dose: 400.0 mg/kg/injection, schedule: Q01DX001 (ip), vehicle: saline) is 100 % of control.

In the case of `COc1ccc(-c2cc(C(=O)Nc3cc(Cl)cc(Cl)c3)c3ccccc3n2)cc1`, the T/C was 91 % of control under setting [4], 93 % of control under setting [5] and 91 % of control under setting [6].

The values above are taken from PubChem BioAssay AID330 (DTP/NCI, 2004).
